Results from the Kinase Knowledgebase extract (Sharma et al. 2016).

Target: CDK2 (human) (UniProt P24941)
Experiment: Cell-Based Assay

Cc1[nH]c(C#N)c(C)c1-c1ccnc(Nc2ccc(C(F)(F)F)cc2)n1
IC50 (a549): 3.64 µM
IC50 (ht-29): 0.95 µM
IC50 (saos-2): 3.4 µM

Cc1ccc(Nc2nccc(-c3c(C)[nH]c(C#N)c3C)n2)cc1F
IC50 (a549): 1.49 µM
IC50 (ht-29): 0.28 µM
IC50 (saos-2): 2.23 µM

Cc1[nH]c(C#N)c(C)c1-c1ccnc(Nc2ccc(F)cc2)n1
IC50 (hs-27): 15.1 µM
IC50 (imr90): 20.8 µM
IC50 (w138): 9.6 µM

Cc1[nH]c(CN(C)C)c(C)c1-c1ccnc(Nc2ccc(F)cc2)n1
IC50 (a549): 2.76 µM
IC50 (ht-29): 3.2 µM
IC50 (saos-2): 0.7 µM

Cc1[nH]c(C#N)c(C)c1-c1ccnc(Nc2ccc(N(C)C)cc2)n1
IC50 (a549): 1.41 µM
IC50 (ht-29): 0.17 µM
IC50 (saos-2): 1.5 µM

Cc1[nH]c(C#N)c(C)c1-c1ccnc(Nc2cccc(O)c2)n1
IC50 (saos-2): 0.9 µM

Cc1c[nH]c(C)c1-c1ccnc(Nc2ccc(I)c(Cl)c2)n1
IC50 (a549): 4.39 µM

Cc1c[nH]c(C)c1-c1ccnc(Nc2ccc(C(F)(F)F)cc2)n1
IC50 (a549): 15 µM
IC50 (ht-29): 3.1 µM
IC50 (saos-2): 17 µM

CCN(CC)Cc1[nH]c(C)c(-c2ccnc(Nc3ccc(F)cc3)n2)c1C
IC50 (a549): 0.97 µM
IC50 (ht-29): 1.31 µM
IC50 (saos-2): 1.61 µM

Cc1cc(Nc2nccc(-c3c(C)[nH]c(C#N)c3C)n2)ccc1Cl
IC50 (a549): 4.37 µM
IC50 (ht-29): 3.27 µM
IC50 (saos-2): 5.88 µM

Cc1[nH]c(C#N)c(C)c1-c1ccnc(Nc2ccc(I)cc2)n1
IC50 (a549): 0.51 µM
IC50 (hela): 0.09 µM
IC50 (hs-27): 35.1 µM
IC50 (ht-29): 0.11 µM
IC50 (imr90): 37.3 µM
IC50 (mcf-7): 0.45 µM
IC50 (saos-2): 0.75 µM
IC50 (w138): 21.3 µM

Cc1ccc(Nc2nccc(-c3c(C)[nH]c(C#N)c3C)n2)cc1I
IC50 (a549): 3.6 µM
IC50 (ht-29): 0.72 µM
IC50 (saos-2): 3.12 µM

Cc1[nH]c(CN2CCN(C)CC2)c(C)c1-c1ccnc(Nc2ccc(F)cc2)n1
IC50 (a549): 13.8 µM
IC50 (ht-29): 5.09 µM
IC50 (saos-2): 14.2 µM

Cc1[nH]c([N+](=O)[O-])c(C)c1-c1ccnc(Nc2ccc(N(C)C)cc2)n1
IC50 (a549): 3.05 µM
IC50 (ht-29): 0.61 µM
IC50 (saos-2): 2.65 µM

Cc1[nH]c(Br)c(C)c1-c1ccnc(Nc2cccc([N+](=O)[O-])c2)n1
IC50 (a549): 7.56 µM
IC50 (ht-29): 2.92 µM
IC50 (saos-2): 12.4 µM
